Measurements reported in paper PMC2779801, “Comparative biochemical analysis of HIV-1 subtype B and C integrase enzymes” (Retrovirology, 2009).
Read-outs that look alike come from different tables or passages of the source.

Columns and labels:
[1] = molecular target: T1, HIV-1 subtype B integrase (Human immunodeficiency virus type 1, UniProt P12497); experiment: Disintegration assay; assay type: biochemical; settings: increasing inhibitor concentration
From the text: Oligonucleotides were purchased from Invitrogen and then PAGE purified.
ATP (Perkin Elmer). Unincorporated nucleotides were discarded utilizing 'NucAway columns' (Ambion).

[2] = molecular target: T2, HIV-1 subtype C integrase (Human immunodeficiency virus type 1, UniProt Q9QN97, C991S/F896H); settings: for Inhibition of disintegration: increasing inhibitor concentration
Procedure: (§1) Oligonucleotide-based assays were performed to measure integrase enzymatic activities. All oligonucleotide probes were gel purified and phenol-chloroform extracted. INT1 oligonucleotide was radiolabeled using the T4 Polynucleotide Kinase kit (Ambion) with [γ-^32P] ATP (Perkin Elmer). Unincorporated nucleotides were discarded utilizing 'NucAway columns' (Ambion). A double stranded oligonucleotide substrate was obtained by mixing equal concentrations of INT1 and INT2, heating to 95°C and stepwise cooling to 37°C in 100 mM NaCl. The oligonucleotides T35 and SK70 were annealed to form a second double stranded oligonucleotide. INT1/2 mimicked the HIV-1 U5 long terminal repeat (LTR) and acted as a substrate for 3' processing. T35/SK70 acted as a site for integration of the processed INT1/2 fragment and mimicked host DNA.
Concentrations of enzymes used in the following reactions were optimized in a series of preliminary experiments. Integrase reactions were performed in a buffer containing 20 mM Hepes (pH 7.5), 30 mM NaCl, 1 mM dithiothreitol, 125 μM ZnCl2 and 0.125 pmol dsDNA substrate (INT1/2) in a final volume of 10 μl. Recombinant integrase (3.1 μM), and varying concentrations of integrase inhibitors or water/DMSO as control, were mixed and preincubated at 37°C for 15 min. 3' processing reactions were initiated by addition of 7.5 mM of MnCl2 and incubated at 37°C for 3 min unless otherwise indicated. For strand transfer reactions, 1.25 pmol of dsDNA template (T35/SK70) were added and the reaction mixture was further incubated at 37°C for 1 hour unless otherwise indicated. Reactions were stopped by adding 5 times the volume of gel loading dye (formamide containing 1% SDS, 0.25% bromophenol blue, and 0.25% xylene cyanol) and heating to 95°C. Reaction products were separated on 6% acrylamide, 7 M urea sequencing gels. Gels were dried and exposed utilizing phosphorimager screens (GE Healthcare) and scanned in a Molecular Dynamics Typhoon Phosphorimager (GE Healthcare). Product analysis and quantification were conducted using ImageQuant and GraphPad Prism 4.0 software. Quantification of standard error of the mean (SEM) was performed with GraphPad Prism 4.0 software.

Subtype C virus 96USNG31 = experiment: Cell culture phenotypic drug susceptibility assay (p24 antigen) in cord blood mononuclear cells; assay type: cell-based, HIV-1
Procedure: (§2) Recombinant viruses (subtype B) (pNL4-3 and IIIb) and viruses obtained from either our primary HIV infection cohort or from long-term infected patients (subtype B and C) were amplified as previously described. Drug susceptibility was measured in cell culture-based phenotypic assays using cord blood mononuclear cells to determine the extent of […] HIV replication blockage by integrase inhibitors.

Subtype C virus BG-05 = experiment: as above; assay type: cell-based, HIV-1
Procedure: as §2

Subtype B virus 5331 = experiment: as above; assay type: cell-based, HIV-1; settings: read-out: EC50 Values
Procedure: as §2

Subtype C virus HB-1 = experiment: as above; assay type: cell-based, HIV-1
Procedure: as §2

Subtype B virus IIIb = experiment: as above; assay type: cell-based, HIV-1; settings: read-out: EC50 Values
Procedure: as §2

Subtype B virus pNL4-3 = experiment: as above; assay type: cell-based, HIV-1; settings: read-out: EC50 Values
Procedure: as §2

Subtype C virus 4742 = experiment: as above; assay type: cell-based, HIV-1
Procedure: as §2

[3] = molecular target: T2, HIV-1 subtype C integrase; settings: read-out: Strand Transfer IC50, Mg2+-based microtiter plate assay, 95% confidence interval in brackets
Procedure: A microtiter plate assay was utilized to evaluate MgCl2-mediated strand transfer as previously described. Briefly, biotinylated oligonucleotides mimicking LTR donor DNA (5'-biotin-[…] and 5'-[…]) were immobilized onto black-colour Reacti-Bind Streptavidin-coated plates (ThermoFisher). 313 nM recombinant enzyme was bound to donor DNA on the plates in the presence of 25 mM […] and the plates were then washed to remove excess unbound enzyme. […] Covalently linked target DNA was detected through use of an anti-FITC antibody conjugated to alkaline phosphatase (Roche) and a chemiluminescence substrate (CSPD Sapphire II, Applied Biosystems). Integrase inhibitors were added at increasing concentrations shortly before the addition of target DNA. Strand transfer was evaluated by chemiluminescence.

[4] = molecular target: T1, HIV-1 subtype B integrase; assay type: biochemical; settings: Mg2+-based microtiter plate assay, 95% confidence interval in brackets, read-out: Strand Transfer IC50
Procedure: A microtiter plate assay was utilized to evaluate MgCl2-mediated strand transfer as previously described [24, 31]. Briefly, biotinylated oligonucleotides mimicking LTR donor DNA (5'-biotin-[sequence] and 5'-[sequence]) were immobilized onto black-colour Reacti-Bind Streptavidin-coated plates (ThermoFisher). 313 nM recombinant enzyme was bound to donor DNA on the plates in the presence of 25 mM MnCl2 and the plates were then washed to remove excess unbound enzyme. […] Covalently linked target DNA was detected through use of an anti-FITC antibody conjugated to alkaline phosphatase (Roche) and a chemiluminescence substrate (CSPD Sapphire II, Applied Biosystems). Integrase inhibitors were added at increasing concentrations shortly before the addition of target DNA. Strand transfer was evaluated by chemiluminescence.

[5] = molecular target: T1, HIV-1 subtype B integrase; assay type: biochemical; settings: Mn2+-based assay, 95% confidence interval in brackets
Procedure: as §1
Concentrations of enzymes used in the following reactions were optimized in a series of preliminary experiments. Integrase reactions were performed in a buffer containing 20 mM Hepes (pH 7.5), 30 mM NaCl, 1 mM dithiothreitol, 125 μM ZnCl2 and 0.125 pmol dsDNA substrate (INT1/2) in a final volume of 10 μl. […] Product analysis and quantification were conducted using ImageQuant and GraphPad Prism 4.0 software. Quantification of standard error of the mean (SEM) was performed with GraphPad Prism 4.0 software.

Subtype C virus Mole 03 = experiment: Cell culture phenotypic drug susceptibility assay (p24 antigen) in cord blood mononuclear cells; assay type: cell-based, HIV-1
Procedure: as §2

Subtype B virus BK 132 = experiment: as above; assay type: cell-based, HIV-1; settings: read-out: EC50 Values
Procedure: as §2

Subtype B virus 5326 = experiment: as above; assay type: cell-based, HIV-1; settings: read-out: EC50 Values
Procedure: as §2

[6] = Human immunodeficiency virus 1, read-out: EC50 Values

| SMILES | Inhibition of disintegration [1] | Inhibition of disintegration [2] | EC50 (Subtype C virus 96USNG31; [6]) [nM] | EC50 (Subtype C virus BG-05; [6]) [nM] | EC50 (Subtype B virus 5331) [nM] | EC50 (Subtype C virus HB-1; [6]) [nM] | EC50 (Subtype B virus IIIb; IIIB) [nM] | EC50 (Subtype B virus pNL4-3) [nM] | EC50 (Subtype C virus 4742; [6]) [nM] | other results |
| --- | --- | --- | --- | --- | --- | --- | --- | --- | --- | --- |
| COc1cc2c(cc1Cc1cccc(Cl)c1F)c(=O)c(C(=O)O)cn2[C@H](CO)C(C)C [EVG, elvitegravir] | neither RAL nor EVG had much effect | neither RAL nor EVG had much effect | 0.8 ± 0.6 | 0.8 ± 0.04 | 0.1 ± 0.07 | 0.1 ± 0.01 | 1.8 ± 0.6 | 0.9 ± 0.3 | 2.2 ± 0.2 | – |
| CCN1C[C@H](C)n2c(c(O)c3c(=O)n(Cc4ccc(F)c(Cl)c4)nc(C(=O)NC)c32)C1=O [MK-2048] | inhibited by high concentrations of MK-2048 | inhibited by high concentrations of MK-2048 | – | – | – | – | – | – | – | IC50 [3]: 2.3 nM; IC50 ([2]; read-out: 3' Processing IC50, Mn2+-based assay, 95% confidence interval in brackets): 190 nM; IC50 ([2]; read-out: Strand Transfer IC50, Mn2+-based assay, 95% confidence interval in brackets): 80 nM; IC50 [4]: 4.7 nM; IC50 ([5]; read-out: 3' Processing IC50): 580 nM; IC50 ([5]; read-out: Strand Transfer IC50): 75 nM; EC50 (Subtype C virus 96USNG31; Subtype C virus 96USNG31, cord blood mononuclear cells, p24 antigen, read-out: EC50 Values): 1.5 ± 0.1 nM; EC50 (Subtype C virus BG-05; Subtype C virus BG-05, cord blood mononuclear cells, p24 antigen, read-out: EC50 Values): 2.2 ± 0.7 nM; EC50 (Subtype C virus Mole 03; Subtype C virus Mole 03, cord blood mononuclear cells, p24 antigen, read-out: EC50 Values): 1.1 ± 0.1 nM; EC50 (Subtype B virus 5331; Subtype B virus 5331, cord blood mononuclear cells, p24 antigen): 1 ± 0.2 nM; EC50 (Subtype B virus BK 132; Subtype B virus BK 132, cord blood mononuclear cells, p24 antigen): 14.8 ± 3.2 nM; EC50 (Subtype B virus 5326; Subtype B virus 5326, cord blood mononuclear cells, p24 antigen): 7.2 ± 2.1 nM; EC50 (Subtype C virus HB-1; Subtype C virus HB-1, cord blood mononuclear cells, p24 antigen, read-out: EC50 Values): 0.7 ± 0.5 nM; EC50 (Subtype B virus IIIb; Subtype B virus IIIb, cord blood mononuclear cells, p24 antigen): 0.3 ± 0.1 nM; EC50 (Subtype B virus pNL4-3; Subtype B virus pNL4-3, cord blood mononuclear cells, p24 antigen): 2.7 ± 0.9 nM; EC50 (Subtype C virus 4742; Subtype C virus 4742, cord blood mononuclear cells, p24 antigen, read-out: EC50 Values): 3.3 ± 2 nM |
| Cc1nnc(C(=O)NC(C)(C)c2nc(C(=O)NCc3ccc(F)cc3)c(O)c(=O)n2C)o1 [RAL, raltegravir] | neither RAL nor EVG had much effect | neither RAL nor EVG had much effect | 8.7 ± 0.7 | 6.7 ± 0.9 | 5.6 ± 2.2 | 1.5 ± 0.4 | 1.2 ± 0.5 | 8.2 ± 1.3 | 20.6 ± 9 | EC50 (Subtype C virus Mole 03; [6]): 4.6 ± 0.2 nM; EC50 (Subtype B virus BK 132): 30.1 ± 5.4 nM; EC50 (Subtype B virus 5326): 24.3 ± 2.5 nM |
